Reference: patent publication US11932626B2, “2-pyrimidone analogs as potent antiviral agents against Alphaviruses” (priority 2020, dated 2024)

Key:
in vitro = conditions: human
CHIKV = CHIKV virus titer reduction (VTR) assay in NHDF cells; format: cell-based; conditions: Chikungunya virus; for log reduction at 10 µM: CHIKV titer reduction at 10 μM, normal human dermal fibroblasts (NHDF) cells; for EC90: effective concentration of 90% inhibition of virus in a VTR assay, NHDF cells
VEEV (TC-83) = assay: microbe, parasite or virus in culture; format: cell-based; conditions: Venezuelan equine encephalitis virus, read-out: VEEV EC50
VEEV = assay: microbe, parasite or virus in culture; format: cell-based; conditions: Venezuelan equine encephalitis virus, NHDF; for EC90: read-out: VEEV EC90; for log reduction at 10 µM: read-out: VEEV VTR
[1] = system: CHIKV linked NanoLuc luciferase reporter; assay: microbe, parasite or virus in culture; format: cell-based; conditions: Chikungunya virus, read-out: CHIKV EC50

SMILES | CC50 (in vitro) [µM] | log reduction at 10 µM (CHIKV) | EC90 (CHIKV) [µM] | EC50 (VEEV (TC-83)) [µM] | EC90 (VEEV) [µM] | log reduction at 10 µM (VEEV) | EC50 [1] [µM]
Cc1c[nH]c(=O)nc1OCC(=O)NC12CC3CC(CC(C3)C1)C2 [compound 25, N-(Adamantan-1-Yl)-2-((5-Methyl-2-Oxo-1,2-Dihydropyrimidin-4-Yl)Oxy)Acetamide] | > 40 | 4.91 | 2.1 | 16.1 | 2.83 | 3.04 | 1.97
O=C(COc1cc(-c2ccccc2)[nH]c(=O)n1)NC12CC3CC(CC(C3)C1)C2 [compound 15, N-(Adamantan-1-Yl)-2-((2-Oxo-6-Phenyl-1,2-Dihydropyrimidin-4-Yl)Oxy)Acetamide] | > 40 | 8.93 | 2.7 | 20.8 | 2.02 | 3.25 | 1.47
CCOc1cc(OCC(=O)NC23CC4CC(CC(C4)C2)C3)nc(=O)[nH]1 [compound 55, N-(Adamantan-1-Yl)-2-((6-Ethoxy-2-Oxo-1,2-Dihydropyrimidin-4-Yl)Oxy)Acetamide] | > 40 | 4 | 0.14 | 2.78 | > 10 | 0.05 | 0.179
Cc1[nH]c(=O)nc(SCC(=O)NC23CC4CC(CC(C4)C2)C3)c1C(=O)O [compound 38, 4-((2-((Adamantan-1-Yl)Amino)-2-Oxoethyl)Thio)-6-Methyl-2-Oxo-1,2-Dihydropyrimidine-5-Carboxylic Acid] | > 40 | 1.19 |  | > 40 |  | 0.23 | > 40
O=C(COc1cc(C2CC2)[nH]c(=O)n1)NC12CC3CC(CC(C3)C1)C2 [compound 11, N-(Adamantan-1-Yl)-2-((6-Cyclopropyl-2-Oxo-1,2-Dihydropyrimidin-4-Yl)Oxy)Acetamide] | > 40 | 1.05 | 0.56 | 20.6 | 1.1 | 2.97 | 0.24
O=C(COc1cc(OC2COC2)[nH]c(=O)n1)NC12CC3CC(CC(C3)C1)C2 [compound 53, N-(Adamantan-1-Yl)-2-((6-(Oxetan-3-Yloxy)-2-Oxo-1,2-Dihydropyrimidin-4-Yl)Oxy)Acetamide] | > 40 |  |  | > 40 |  |  | 27.9
O=C(COc1cc(C2CCCC2)[nH]c(=O)n1)NC12CC3CC(CC(C3)C1)C2 [compound 13, N-(Adamantan-1-Yl)-2-((6-Cyclopentyl-2-Oxo-1,2-Dihydropyrimidin-4-Yl)Oxy)Acetamide] | > 40 | 5.93 | 0.04 | 17.4 | 4.5 | 1.94 | 1.24
O=C(COc1cc(C(F)(F)F)[nH]c(=O)n1)NC12CC3CC(CC(C3)C1)C2 [compound 16, N-(Adamantan-1-Yl)-2-((2-Oxo-6-(Trifluoromethyl)-1,2-Dihydropyrimidin-4-Yl)Oxy)Acetamide] | > 40 | 1.09 | 15 | > 40 | > 10 | 0 | > 40
CC(C)(C)c1ccc(NC(=O)c2cc[nH]c(=O)n2)cc1 [compound 30, N-(4-(Tert.-Butyl)Phenyl)-2-Oxo-1,2-Dihydropyrimidine-4-Carboxamide] | > 40 |  |  | > 40 |  |  | 26.4
CC(C)Cc1cc(C(=O)NCCC23CC4CC(CC(C4)C2)C3)nc(=O)[nH]1 [compound 5, N-(2-(Adamantan-1-Yl)Ethyl)-6-Isobutyl-2-Oxo-1,2-Dihydropyrimidine-4-Carboxamide] | > 40 |  |  | > 40 |  |  | 35.2
O=C(COc1nc(=O)[nH]c(N2CCOCC2)c1F)NC12CC3CC(CC(C3)C1)C2 [compound 33, N-(Adamantan-1-Yl)-2-((5-Fluoro-6-Morpholino-2-Oxo-1,2-Dihydropyrimidin-4-Yl)Oxy)Acetamide] | > 40 | 6.08 | 0.15 | 23.9 |  |  | 1.8
CC(C)Oc1[nH]c(=O)nc(OCC(=O)NC23CC4CC(CC(C4)C2)C3)c1F [compound 54, N-(Adamantan-1-Yl)-2-((5-Fluoro-6-Isopropoxy-2-Oxo-1,2-Dihydropyrimidin-4-Yl)Oxy)Acetamide] | > 40 |  |  | > 40 |  |  | 21.5
O=C(CSc1cc[nH]c(=O)n1)NCC12CC3CC(CC(C3)C1)C2 [compound 41, N-((Adamantan-1-Yl)Methyl)-2-((2-Oxo-1,2-Dihydropyrimidin-4-Yl)Thio)Acetamide] | > 40 |  |  | > 40 |  |  | > 40
O=C(COc1cc(OCCO)[nH]c(=O)n1)NC12CC3CC(CC(C3)C1)C2 [compound 32, N-(adamantan-1-yl)-2-((6-(2-hydroxyethoxy)-2-oxo-1,2-dihydropyrimidin-4-yl)oxy)acetamide] | > 40 | 3.45 | 0.61 | > 40 |  |  | 4.69
O=C(NC12CC3CC(CC(C3)C1)C2)c1cc[nH]c(=O)n1 [compound 42, N-((Adamantan-1-Yl)-2-Oxo-1,2-Dihydropyrimidine-4-Carboxamide] | > 40 |  |  | > 40 |  |  | > 40
CC(C)Cc1cc(C(=O)NC23CC4CC(CC(C4)C2)C3)nc(=O)[nH]1 [compound 43, N-(Adamantan-1-Yl)-6-Isobutyl-2-Oxo-1,2-Dihydropyrimidine-4-Carboxamide] | > 40 |  |  | > 40 |  |  | > 40
CC(C)Cc1cc(C(=O)Nc2ccc(C(C)(C)C)cc2)nc(=O)[nH]1 [compound 31, N-(4-(Tert.-Butyl)Phenyl)-6-Isobutyl-2-Oxo-1,2-Dihydropyrimidine-4-Carboxamide] | > 40 |  |  | > 40 |  |  | 13.1
O=C(CNc1cc[nH]c(=O)n1)NC12CC3CC(CC(C3)C1)C2 [compound 6, N-(adamantan-1-yl)-2-((2-oxo-1,2-dihydropyrimidin-4-yl)amino)acetamide] | > 40 |  |  | > 40 |  |  | 11.8
O=C(COc1cc(OCC(F)(F)F)[nH]c(=O)n1)NC12CC3CC(CC(C3)C1)C2 [compound 57, N-(adamantan-1-yl)-2-((2-oxo-6-(2,2,2-trifluoroethoxy)-1,2-dihydropyrimidin-4-yl)oxy)acetamide] | > 40 | 7.79 | 0.3 | > 40 |  |  | 2.97
CCCCOC(=O)c1cc(SCC(=O)NC23CC4CC(CC(C4)C2)C3)nc(=O)[nH]1 [compound 39, Butyl 6-((2-((-Adamantan-1-Yl)Amino)-2-Oxoethyl)Thio)-2-Oxo-2,3-Dihydropyrimidine-4-Carboxylate] | > 40 |  |  | > 40 |  |  | > 40
O=C(CSc1cc(C(=O)O)[nH]c(=O)n1)NC12CC3CC(CC(C3)C1)C2 [compound 40, 6-((2-((adamantan-1-yl)amino)-2-oxoethyl)thio)-2-oxo-2,3-dihydropyrimidine-4-carboxylic acid] | > 40 |  |  | > 40 |  |  | > 40
